Laboratory results reported in publication PMC11050952 (Marine Drugs, 2024).
Several values for one entry are separate records, joined by “and”; a condition that tells them apart may be missing. Identical values can stand only once. Entries after “also recorded” stand apart in the source; their conditions may differ. Like-named read-outs stand apart in the source and are kept apart here.

What was measured:
[1] = system: Neuro-2a cells; settings: cited from earlier work
[2] = system: Nav currents in Neuro-2a cells (voltage-gated sodium channels, VGSCs); format: cell-based, murine
[3] = read-out: IC50 (inhibition of Nav currents)

In the case of C[C@@H]1C[C@@H]2[C@@H](O)N=C(N)N[C@]23[C@H](O)C(=O)O[C@H]1[C@H]3O [5,6,11-trideoxyTTX], the “Toxicity equivalency factor (TEF)” value [1] is given as 0.011.

Work on CCN(CC)CC(=O)Nc1c(C)cccc1C [Lidocaine, lidocaine] yielded an IC50 [2, 3] of 717000 nM.

For NC1=N[C@H](O)[C@H]2[C@H]3O[C@]4(O)O[C@@H]([C@@H](O)[C@@]2(N1)[C@@H]4O)[C@]3(O)CO [TTX, Tetrodotoxin], the “Hill Slope” value [2] was 0.997 ± 0.068 and 0.910 ± 0.120 and 1.167 ± 0.204 and 0.801 ± 0.149 and 1.089 ± 0.097, the “Reversibility of Nav current blockage” value [2] was “could be reversed” and the “TTX concentration giving 20% blockade (minimum detectable blockade)” value [2] was 0.5 ng/mL. The “Inhibition of Nav currents” value ([2]; 0.1 µM) was “completely inhibited; also recorded: complete inhibitions”, the IC50 ([2]; read-out: IC50 (blockade of Nav currents)) was 6.4 nM and the IC50 ([2]; read-out: IC50 Value) was 4.93 nM and 5.02 nM and 5.12 nM and 4.26 nM and 6.38 nM.

With CCCCNc1ccc(C(=O)OCCN(C)C)cc1 [tetracaine] the IC50 [2, 3] was 22500 nM.
